Assay results published in patent US20230151025A1, “SUBSTITUTED THIAZOLOPYRIDINES, SALTS THEREOF AND THEIR USE AS HERBICIDALLY ACTIVE SUBSTANCES” (Bayer Aktiengesellschaft, priority 2020, published 2023).

Experiments:
Format in all cases: in vivo
Poa annua (POAAN) [1] = experiment: Herbicidal pre-emergence action (A), 1280 g/ha; conditions: visual grading after ca. 3 weeks vs untreated controls, 100% = plants have died off, 0% = as control plants
How it was run: (§1)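 Greenhouse pre-emergence test: formulated compound (WP/EC plus 0.5% additive, 600 l/ha water) applied to the soil over sown seeds in sandy loam. Percent herbicidal effect was rated by eye after ca. 3 weeks relative to untreated pots.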

Setaria viridis (SETVI) [2] = experiment: Herbicidal pre-emergence action (A), 1280 g/ha; conditions: visual grading after ca. 3 weeks vs untreated controls
How it was run: as §1

[3] = system: Amaranthus retroflexus (AMARE); experiment: Herbicidal post-emergence action (B), 1280 g/ha; conditions: rated visually after about 3 weeks vs untreated controls
How it was run: (§2)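 Foliar post-emergence treatment of one-leaf-stage weeds with WP or EC preparations in water plus 0.5% additive, sprayed at 600 L/ha. Visual efficacy was assessed after roughly 3 weeks relative to untreated controls, 100% being complete kill.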

[4] = system: Digitaria sanguinalis (DIGSA); experiment: Herbicidal post-emergence action (B), 1280 g/ha; conditions: rated visually after about 3 weeks vs untreated controls
How it was run: as §2

Veronica persica (VERPE) [5] = experiment: Herbicidal post-emergence action (B), 1280 g/ha
How it was run: as §2

[6] = system: Matricaria inodora (MATIN); experiment: Herbicidal post-emergence action (B), 1280 g/ha; conditions: rated visually after about 3 weeks vs untreated controls
How it was run: as §2

Stellaria media (STEME) [7] = experiment: Herbicidal post-emergence action (B), 1280 g/ha
How it was run: as §2

[8] = system: Abutilon theophrasti (ABUTH); experiment: Herbicidal post-emergence action (B), 1280 g/ha; conditions: rated visually after about 3 weeks vs untreated controls
How it was run: as §2

[9] = system: Kochia scoparia (KCHSC; Bassia scoparia); experiment: Herbicidal post-emergence action (B), 1280 g/ha
How it was run: as §2

[10] = system: Amaranthus retroflexus (AMARE); experiment: Herbicidal pre-emergence action (A), 1280 g/ha; conditions: visual grading after ca. 3 weeks vs untreated controls
How it was run: as §1

Veronica persica (VERPE) [11] = experiment: Herbicidal pre-emergence action (A), 1280 g/ha; conditions: visual grading after ca. 3 weeks vs untreated controls
How it was run: as §1

Stellaria media (STEME) [12] = experiment: Herbicidal pre-emergence action (A), 1280 g/ha; conditions: visual grading after ca. 3 weeks vs untreated controls
How it was run: as §1

Lolium rigidum (LOLRI) [13] = experiment: Herbicidal pre-emergence action (A), 1280 g/ha; conditions: visual grading after ca. 3 weeks vs untreated controls, 100% = plants have died off, 0% = as control plants
How it was run: as §1

[14] = system: Kochia scoparia (KCHSC; Bassia scoparia); experiment: Herbicidal pre-emergence action (A), 1280 g/ha; conditions: visual grading after ca. 3 weeks vs untreated controls
How it was run: as §1

Poa annua (POAAN) [15] = experiment: Herbicidal post-emergence action (B), 1280 g/ha; conditions: rated visually after about 3 weeks vs untreated controls
How it was run: as §2

[16] = system: Digitaria sanguinalis (DIGSA); experiment: Herbicidal pre-emergence action (A), 1280 g/ha; conditions: visual grading after ca. 3 weeks vs untreated controls, 100% = plants have died off, 0% = as control plants
How it was run: as §1

[17] = system: Matricaria inodora (MATIN); experiment: Herbicidal pre-emergence action (A), 1280 g/ha; conditions: visual grading after ca. 3 weeks vs untreated controls
How it was run: as §1

[18] = system: Alopecurus myosuroides (ALOMY); experiment: Herbicidal pre-emergence action (A), 1280 g/ha; conditions: visual grading after ca. 3 weeks vs untreated controls, 100% = plants have died off, 0% = as control plants
How it was run: as §1

[19] = system: Echinochloa crus-galli (ECHCG); experiment: Herbicidal pre-emergence action (A), 1280 g/ha; conditions: visual grading after ca. 3 weeks vs untreated controls, 100% = plants have died off, 0% = as control plants
How it was run: as §1

[20] = system: Amaranthus retroflexus (AMARE); experiment: Herbicidal pre-emergence action (C), 320 g/ha; conditions: ca. 3 weeks
From the text: (§3) ABUTH: Abutilon theophrasti AGSTE: Agrostis tenuis ALOMY: Alopecurus myosuroides AMARE Amaranthus retroflexus DIGSA: Digitaria sanguinalis ECHCG: Echinochloa crus-galli KCHSC: Kochia scoparia LOLRI: Lolium rigidum MATIN: Matricaria inodora POAAN: Poa annua POLCO: Polygonum convolvulus SETVI: Setaria viridis STEME: Stellaria media VERPE: Veronica persica VIOTR: Viola tricolor
(§4) Seeds of mono- and dicotyledonous weed plants and crop plants were sown, in plastic or organic planting pots, in sandy loam and covered with soil. The compounds according to the invention, formulated in the form of wettable powders (WP) or as emulsifiable concentrates (EC), were applied to the surface of the covering soil as aqueous suspension or emulsion, with the addition of 0.5% of an additive, at an application rate of 600 l of water/ha (converted).
(§5) Following treatment, the pots were placed in a greenhouse and kept under optimum growth conditions for the test plants. The visual grading of the damage to the test plants was carried out after ca. 3 weeks in comparison to untreated controls (herbicidal effect in percent (%): 100% effect=plants have died off, 0% effect=as control plants).
(§6) Tables C1 to C13 below show the effects of selected compounds of the general formula (I) according to table 1 on various harmful plants and an application rate corresponding to 320 g/ha obtained by the experimental procedure mentioned above.

Veronica persica (VERPE) [21] = experiment: Herbicidal pre-emergence action (C), 320 g/ha; conditions: ca. 3 weeks
From the text: as §3, §4, §5, §6

Lolium rigidum (LOLRI) [22] = experiment: Herbicidal pre-emergence action (C), 320 g/ha; conditions: ca. 3 weeks
From the text: as §3, §4, §5, §6

[23] = system: Alopecurus myosuroides (ALOMY); experiment: Herbicidal pre-emergence action (C), 320 g/ha; conditions: ca. 3 weeks
From the text: as §3, §4, §5, §6

Setaria viridis (SETVI) [24] = experiment: Herbicidal pre-emergence action (C), 320 g/ha; conditions: ca. 3 weeks
From the text: as §3, §4, §5, §6

[25] = system: Echinochloa crus-galli (ECHCG); experiment: Herbicidal pre-emergence action (C), 320 g/ha; conditions: ca. 3 weeks
From the text: as §3, §4, §5, §6

[26] = system: Polygonum convolvulus (POLCO); experiment: Herbicidal post-emergence action (D), 320 g/ha; conditions: ca. 3 weeks
From the text: as §3
(§7) Seeds of mono- and dicotyledonous weed plants and crop plants were sown, in plastic or organic planting pots, in sandy loam, covered with soil and grown in a greenhouse under controlled growth conditions. 2 to 3 weeks after sowing, the test plants were sprayed in the single-leaf stage. The compounds according to the invention, formulated in form of wettable powders (WP) or as emulsifiable concentrates (EC), were sprayed onto the green plant parts as aqueous suspension or emulsion, with the addition of 0.5% of an additive, at an application rate of 600 l of water/ha (converted). The test plants were placed in the greenhouse for ca. 3 weeks under optimum growth conditions, and then the effect of the preparations was assessed visually in comparison with untreated controls (herbicidal effect in percent (%): 100% effect=plants have died off, 0% effect=as control plants).
(§8) Tables D1 to D13 below show the effects of selected compounds of the general formula (I) according to table 1 on various harmful plants and an application rate corresponding to 320 g/ha obtained by the experimental procedure mentioned above.

[27] = system: Amaranthus retroflexus (AMARE); experiment: Herbicidal post-emergence action (D), 320 g/ha; conditions: ca. 3 weeks
From the text: as §3, §7, §8

[28] = system: Alopecurus myosuroides (ALOMY); experiment: Herbicidal post-emergence action (B), 1280 g/ha; conditions: rated visually after about 3 weeks vs untreated controls
How it was run: as §2

Setaria viridis (SETVI) [29] = experiment: Herbicidal post-emergence action (B), 1280 g/ha; conditions: rated visually after about 3 weeks vs untreated controls
How it was run: as §2

[30] = system: Echinochloa crus-galli (ECHCG); experiment: Herbicidal post-emergence action (B), 1280 g/ha; conditions: rated visually after about 3 weeks vs untreated controls
How it was run: as §2

Veronica persica (VERPE) [31] = experiment: Herbicidal post-emergence action (D), 320 g/ha; conditions: ca. 3 weeks
From the text: as §3, §7, §8

Setaria viridis (SETVI) [32] = experiment: Herbicidal post-emergence action (D), 320 g/ha; conditions: ca. 3 weeks
From the text: as §3, §7, §8

[33] = system: Echinochloa crus-galli (ECHCG); experiment: Herbicidal post-emergence action (D), 320 g/ha; conditions: ca. 3 weeks
From the text: as §3, §7, §8

[34] = system: Alopecurus myosuroides (ALOMY); experiment: Herbicidal post-emergence action (D), 320 g/ha; conditions: ca. 3 weeks
From the text: as §3, §7, §8

| Structure (SMILES) | POAAN, herbicidal effect in percent (%) (Poa annua (POAAN) [1]) | herbicidal effect SETVI (Setaria viridis (SETVI) [2]) [%] | herbicidal activity AMARE [3] [%] | herbicidal activity DIGSA [4] [%] | herbicidal effect VERPE (Veronica persica (VERPE) [5]) [%] | herbicidal activity MATIN [6] [%] | herbicidal effect STEME (Stellaria media (STEME) [7]) [%] | herbicidal effect KCHSC [9] [%] | herbicidal effect AMARE [10] [%] | herbicidal effect VERPE (Veronica persica (VERPE) [11]) [%] | herbicidal effect STEME (Stellaria media (STEME) [12]) [%] | LOLRI, herbicidal effect in percent (%) (Lolium rigidum (LOLRI) [13]) | herbicidal effect KCHSC [14] [%] | herbicidal activity POAAN (Poa annua (POAAN) [15]) [%] | DIGSA, herbicidal effect in percent (%) [16] [%] | herbicidal effect MATIN [17] [%] | ALOMY, herbicidal effect in percent (%) [18] [%] | ECHCG, herbicidal effect in percent (%) [19] [%] | herbicidal effect ALOMY [23] [%] | herbicidal effect ECHCG [25] [%] | other results |
| --- | --- | --- | --- | --- | --- | --- | --- | --- | --- | --- | --- | --- | --- | --- | --- | --- | --- | --- | --- | --- | --- |
| COc1ccccc1-c1nc2nc(SC)sc2cc1C [Example I-007] | 90 | 100 | 100 | 100 | 90 | 100 | 100 | 90 |  |  |  |  |  |  |  |  |  |  |  |  | herbicidal activity ABUTH [8]: 90% |
| Cc1cc2sc(S(C)(=O)=O)nc2nc1-c1ccccc1F [Example I-021] | 100 | 100 | 90 |  |  | 100 |  | 100 | 100 | 90 | 100 | 100 | 90 | 100 |  |  |  |  |  |  |  |
| CCc1cc2sc([S+](C)[O-])nc2nc1-c1ccccc1C (centres unmarked) [Example I-022] |  |  | 100 |  |  | 90 |  | 90 |  |  | 90 |  |  |  |  |  |  |  |  |  |  |
| C=Cc1cc2scnc2nc1-c1ccccc1F [Example I-072] | 100 | 100 | 100 | 90 | 100 | 90 | 90 | 90 | 100 | 100 | 90 | 100 | 100 | 100 | 100 | 100 | 100 | 100 | 100 | 100 | herbicidal effect AMARE [20]: 80%; herbicidal effect VERPE (Veronica persica (VERPE) [21]): 80%; herbicidal effect LOLRI (Lolium rigidum (LOLRI) [22]): 100%; herbicidal effect SETVI (Setaria viridis (SETVI) [24]): 100%; herbicidal effect POLCO [26]: 80%; herbicidal effect AMARE [27]: 80%; herbicidal activity ALOMY [28]: 100%; herbicidal activity SETVI (Setaria viridis (SETVI) [29]): 90%; herbicidal activity ECHCG [30]: 90% |
| CCc1cc2scnc2nc1-c1ccccc1OC [Example I-111] | 100 | 100 | 100 | 100 | 90 |  | 90 | 100 | 90 | 90 | 100 | 100 | 100 | 100 | 100 | 90 | 90 | 100 |  |  | herbicidal effect VERPE (Veronica persica (VERPE) [31]): 80% |
| Fc1cccc(-c2ccc3scnc3n2)c1 [Example I-118] | 100 | 100 | 90 |  | 90 | 100 |  |  | 90 |  | 100 | 100 |  | 100 | 100 | 90 |  |  |  |  |  |
| CCc1cc2sc(S)nc2nc1-c1ccccc1C [Example I-158] |  |  | 90 |  | 90 | 100 |  |  | 90 |  | 90 |  |  | 100 |  |  |  | 100 |  |  |  |
| CCCc1cc2scnc2nc1-c1ccccc1F [Example I-185] | 100 |  | 100 |  | 90 |  |  | 90 |  | 90 | 90 | 100 | 90 |  |  | 90 |  | 100 | 90 | 100 | herbicidal effect LOLRI (Lolium rigidum (LOLRI) [22]): 100%; herbicidal effect SETVI (Setaria viridis (SETVI) [24]): 100%; herbicidal effect POLCO [26]: 80%; herbicidal effect VERPE (Veronica persica (VERPE) [31]): 90%; herbicidal effect SETVI (Setaria viridis (SETVI) [32]): 90%; herbicidal effect ECHCG [33]: 80%; herbicidal activity SETVI (Setaria viridis (SETVI) [29]): 90%; herbicidal activity ECHCG [30]: 90% |
| Clc1cc2scnc2nc1-c1ccsc1 [Example I-191] | 100 | 100 |  |  | 100 | 90 | 90 | 90 | 90 | 100 | 100 | 100 | 90 | 100 |  | 90 | 100 | 100 | 90 | 100 | herbicidal effect ALOMY [34]: 80%; herbicidal effect ECHCG [33]: 90%; herbicidal activity ALOMY [28]: 100%; herbicidal activity ABUTH [8]: 90%; herbicidal activity ECHCG [30]: 100% |
